≈ marks a conversion by molar mass, not a printed value. Calls of active or inactive are those of the source. The rule behind the calls is not given here.
How the values were obtained:
DU-145 = assay: Cytotoxicity against human DU145 cells after 48 hrs by sulforhodamine B assay; assay type: functional
BXPC-3 = assay: Cytotoxicity against human BxPC3 cells after 48 hrs by sulforhodamine B assay; assay type: functional
Micrococcus luteus [1] = assay: Antimicrobial activity against Micrococcus luteus Presque Isle 456 assessed clear zone in inhibition per disk by CLSI disk diffusion susceptibility assay; assay type: functional
Enterococcus faecalis [2] = assay: Antimicrobial activity against Enterococcus faecalis ATCC 29212 assessed clear zone in inhibition per disk by CLSI disk diffusion susceptibility assay; assay type: functional
SK-MEL-5 = assay: Cytotoxicity against human SK-MEL-5 cells after 48 hrs by sulforhodamine B assay; assay type: functional
Candida albicans [3] = assay: Antimicrobial activity against Candida albicans ATCC 90028 assessed clear zone in inhibition per disk by CLSI disk diffusion susceptibility assay; assay type: functional
NCI-H460 = assay: Cytotoxicity against human NCI-H460 cells after 48 hrs by sulforhodamine B assay; assay type: functional
Staphylococcus aureus [4] = assay: Antimicrobial activity against Staphylococcus aureus ATCC 29213 assessed clear zone in inhibition per disk by CLSI disk diffusion susceptibility assay; assay type: functional
SF-295 = assay: Cytotoxicity against human SF295 cells after 48 hrs by sulforhodamine B assay; assay type: functional
Neisseria gonorrhoeae [5] = assay: Antimicrobial activity against Neisseria gonorrhoeae ATCC 49226 after 24 hrs by broth microdilution susceptibility assay; assay type: functional; conditions: ATCC 49226, 24 h
[6] = Inhibition of tubulin polymerization
MCF7 = assay: Cytotoxicity against human MCF7 cells after 48 hrs by sulforhodamine B assay; assay type: functional
Staphylococcus aureus [7] = assay: Antimicrobial activity against Staphylococcus aureus ATCC 29213 by broth microdilution susceptibility assay; assay type: functional
Cryptococcus neoformans [8] = assay: Antimicrobial activity against Cryptococcus neoformans ATCC 90112 assessed clear zone in inhibition per disk by CLSI disk diffusion susceptibility assay; assay type: functional
OVCAR-3 = assay: Cytotoxicity against human OVCAR-3 cells after 48 hrs by sulforhodamine B assay; assay type: functional
Candida albicans [9] = assay: Antifungal activity against Candida albicans ATCC 90028 after 24 hrs by broth microdilution susceptibility assay; assay type: functional; conditions: ATCC 90028, 24 h
Escherichia coli [10] = assay: Antimicrobial activity against Escherichia coli ATCC 25922 assessed clear zone in inhibition per disk by CLSI disk diffusion susceptibility assay; assay type: functional
[11] = test system: Stenotrophomonas maltophilia; assay: Antimicrobial activity against Stenotrophomonas maltophilia ATCC 13637 by broth microdilution susceptibility assay; assay type: functional
KM-20L2 = assay: Cytotoxicity against human KM20L2 cells after 48 hrs by sulforhodamine B assay; assay type: functional
A498 = assay: Cytotoxicity against human A498 cells after 48 hrs by sulforhodamine B assay; assay type: functional
Cryptococcus neoformans [12] = assay: Antifungal activity against Cryptococcus neoformans ATCC 90112 after 72 hrs by broth microdilution susceptibility assay; assay type: functional; conditions: ATCC 90112, 72 h
SF-268 = assay: Cytotoxicity against human SF268 cells after 48 hrs by sulforhodamine B assay; assay type: functional
Enterobacter cloacae [13] = assay: Antimicrobial activity against Enterobacter cloacae ATCC 13047 by broth microdilution susceptibility assay; assay type: functional
Escherichia coli [14] = assay: Antimicrobial activity against Escherichia coli ATCC 25922 by broth microdilution susceptibility assay; assay type: functional
[15] = test system: Stenotrophomonas maltophilia; assay: Antimicrobial activity against Stenotrophomonas maltophilia ATCC 13637 assessed clear zone in inhibition per disk by CLSI disk diffusion susceptibility assay; assay type: functional
Streptococcus pneumoniae [16] = assay: Antimicrobial activity against Streptococcus pneumoniae ATCC 6303 assessed clear zone in inhibition per disk by CLSI disk diffusion susceptibility assay; assay type: functional
P388 = assay: Cytotoxicity against mouse P388 cells after 48 hrs by sulforhodamine B assay; assay type: functional; conditions: for EC50: P388, 48 h, read-out: ED50 (the source's name)
Enterobacter cloacae [17] = assay: Antimicrobial activity against Enterobacter cloacae ATCC 13047 assessed clear zone in inhibition per disk by CLSI disk diffusion susceptibility assay; assay type: functional
Neisseria gonorrhoeae [18] = assay: Antimicrobial activity against Neisseria gonorrhoeae ATCC 49226 assessed clear zone of inhibition measured per disk by CLSI disk diffusion susceptibility assay; assay type: functional
Streptococcus pneumoniae [19] = assay: Antimicrobial activity against Streptococcus pneumoniae ATCC 6303 by broth microdilution susceptibility assay; assay type: functional
Neisseria gonorrhoeae [20] = assay: Antimicrobial activity against Neisseria gonorrhoeae ATCC 49226 by broth microdilution susceptibility assay; assay type: functional
Cryptococcus neoformans [21] = assay: Antifungal activity against Cryptococcus neoformans ATCC 90112 after 48 hrs by broth microdilution susceptibility assay; assay type: functional; conditions: ATCC 90112, 48 h
Micrococcus luteus [22] = assay: Antimicrobial activity against Micrococcus luteus Presque Isle 456 by broth microdilution susceptibility assay; assay type: functional
Candida albicans [23] = assay: Antifungal activity against Candida albicans ATCC 90028 after 48 hrs by broth microdilution susceptibility assay; assay type: functional; conditions: ATCC 90028, 48 h
Enterococcus faecalis [24] = assay: Antimicrobial activity against Enterococcus faecalis ATCC 29212 by broth microdilution susceptibility assay; assay type: functional

Row | SMILES | MIC (Micrococcus luteus [1]) [µg] | MIC (Enterococcus faecalis [2]) [µg] | GI50 (SK-MEL-5) | MIC (Candida albicans [3]) [µg] | MIC (Staphylococcus aureus [4]) [µg] | IC50 [6] [µM] | MIC (Staphylococcus aureus [7]) [µg/mL] | MIC (Cryptococcus neoformans [8]) [µg] | MIC (Escherichia coli [10]) [µg] | MIC [11] [µg/mL] | GI50 (A498) | MIC (Cryptococcus neoformans [12]) [µg/mL] | MIC (Enterobacter cloacae [13]) [µg/mL] | MIC (Escherichia coli [14]) [µg/mL] | MIC [15] [µg] | MIC (Streptococcus pneumoniae [16]) [µg] | MIC (Enterobacter cloacae [17]) [µg] | MIC (Neisseria gonorrhoeae [18]) [µg] | MIC (Streptococcus pneumoniae [19]) [µg/mL] | MIC (Neisseria gonorrhoeae [20]) [µg/mL] | further results
1 | COc1ccc(/C=C/[N+](=O)[O-])cc1 | 50 | 50 | inactive | 3.12 | 12.5 | 5.7 | > 64 | 1.56 | 6.25 | > 64 | inactive | 16 (≈ 89.3 µM) | > 64 | > 64 | 12.5 | 6.25 | 12.5 | 0.78 | > 64 | 2 (≈ 11.2 µM) | GI50 (DU-145; DU-145, 48 h): 1.7 µg/mL (≈ 9.49 µM); GI50 (BXPC-3; BXPC-3, 48 h): 1.8 µg/mL (≈ 10 µM); GI50 (NCI-H460; NCI-H460, 48 h): 1.7 µg/mL (≈ 9.49 µM); GI50 (SF-295; SF-295, 48 h): 1.6 µg/mL (≈ 8.93 µM); MBC (Neisseria gonorrhoeae [5]): 2 µg/mL (≈ 11.2 µM); GI50 (MCF7; MCF7, 48 h): 0.54 µg/mL (≈ 3.01 µM); GI50 (OVCAR-3): inactive; MFC (Candida albicans [9]): 16 µg/mL (≈ 89.3 µM); GI50 (KM-20L2; KM-20L2, 48 h): 1.5 µg/mL (≈ 8.37 µM); GI50 (SF-268): inactive; EC50 (P388): 1.7 µg/mL (≈ 9.49 µM); MFC (Cryptococcus neoformans [21]): 16 µg/mL (≈ 89.3 µM); MIC (Micrococcus luteus [22]): > 64 µg/mL; MIC (Candida albicans [23]): 8 µg/mL (≈ 44.6 µM); MIC (Enterococcus faecalis [24]): > 64 µg/mL
2 | COc1cc(/C=C/[N+](=O)[O-])cc(OC)c1OC | 25 | 50 | inactive | 3.12 | 12.5 | 4.5 | > 64 | 3.12 | >100 | > 64 | inactive | 16 (≈ 66.9 µM) | > 64 | > 64 | >100 | 3.12 | >100 | 0.78 | > 64 | 4 (≈ 16.7 µM) | GI50 (DU-145; DU-145, 48 h): 1 µg/mL (≈ 4.18 µM); GI50 (BXPC-3; BXPC-3, 48 h): 1.4 µg/mL (≈ 5.85 µM); GI50 (NCI-H460; NCI-H460, 48 h): 1.1 µg/mL (≈ 4.6 µM); GI50 (SF-295; SF-295, 48 h): 1.3 µg/mL (≈ 5.43 µM); MBC (Neisseria gonorrhoeae [5]): 8 µg/mL (≈ 33.4 µM); GI50 (MCF7): inactive; GI50 (OVCAR-3; OVCAR-3, 48 h): 0.42 µg/mL (≈ 1.76 µM); MFC (Candida albicans [9]): 32 µg/mL (≈ 134 µM); GI50 (KM-20L2; KM-20L2, 48 h): 1.3 µg/mL (≈ 5.43 µM); GI50 (SF-268): inactive; EC50 (P388): 1.1 µg/mL (≈ 4.6 µM); MFC (Cryptococcus neoformans [21]): 16 µg/mL (≈ 66.9 µM); MIC (Micrococcus luteus [22]): > 64 µg/mL; MIC (Candida albicans [23]): 32 µg/mL (≈ 134 µM); MIC (Enterococcus faecalis [24]): > 64 µg/mL
3 | COc1cc(/C=C/[N+](=O)[O-])cc2c1OCO2 | >100 | >100 | inactive | 1.56 | >100 | 5.6 | > 64 | 3.12 | >100 | > 64 | inactive | 64 (≈ 287 µM) | > 64 | > 64 | >100 | >100 | >100 | 1.56 | > 64 | > 64 | GI50 (DU-145): inactive; GI50 (BXPC-3): inactive; GI50 (NCI-H460): inactive; GI50 (SF-295): inactive; GI50 (MCF7): inactive; GI50 (OVCAR-3): inactive; GI50 (KM-20L2): inactive; GI50 (SF-268): inactive; ED50 (P388): inactive; MFC (Cryptococcus neoformans [21]): > 64 µg/mL; MIC (Micrococcus luteus [22]): > 64 µg/mL; MIC (Candida albicans [23]): > 64 µg/mL; MIC (Enterococcus faecalis [24]): > 64 µg/mL
4 | COc1ccc(/C=C/[N+](=O)[O-])cc1OC | 50 | 25 | inactive | 6.25 | 25 | 6 | > 64 | 3.12 | 25 | > 64 | inactive | 16 (≈ 76.5 µM) | > 64 | > 64 | >100 | 12.5 | >100 | 0.78 | > 64 | 4 (≈ 19.1 µM) | GI50 (DU-145; DU-145, 48 h): 1.4 µg/mL (≈ 6.69 µM); GI50 (BXPC-3; BXPC-3, 48 h): 1.5 µg/mL (≈ 7.17 µM); GI50 (NCI-H460; NCI-H460, 48 h): 0.46 µg/mL (≈ 2.2 µM); GI50 (SF-295): inactive; MBC (Neisseria gonorrhoeae [5]): 4 µg/mL (≈ 19.1 µM); GI50 (MCF7; MCF7, 48 h): 0.53 µg/mL (≈ 2.53 µM); GI50 (OVCAR-3): inactive; MFC (Candida albicans [9]): 16 µg/mL (≈ 76.5 µM); GI50 (KM-20L2; KM-20L2, 48 h): 1.3 µg/mL (≈ 6.21 µM); GI50 (SF-268; SF-268, 48 h): 0.71 µg/mL (≈ 3.39 µM); EC50 (P388): 0.34 µg/mL (≈ 1.63 µM); MFC (Cryptococcus neoformans [21]): 16 µg/mL (≈ 76.5 µM); MIC (Micrococcus luteus [22]): > 64 µg/mL; MIC (Candida albicans [23]): 16 µg/mL (≈ 76.5 µM); MIC (Enterococcus faecalis [24]): > 64 µg/mL

Reference: ChEMBL document CHEMBL1152576, “E-Combretastatin and E-resveratrol structural modifications: antimicrobial and cancer cell growth inhibitory beta-E-nitrostyrenes” (Bioorg Med Chem, 2009)
